Measured values: PubChem BioAssay AID248 (DTP/NCI, 2004)
Where “and” joins values, the source holds several entries; their conditions need not be identical. Equal entries are not always repeated. Toxic doses and inconclusive results are not listed.

Test system: L1210 leukemia ip in BDF1 mice, survival T/C
Assay: NCI In Vivo Anticancer Drug Screen. Data for tumor model L1210 Leukemia (intraperitoneal) in B6D2F1 (BDF1) mice
Details: higher = longer survival
How it was run: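 Tumor was transplanted into mice, which were then dosed with test compound or vehicle alone. Survival was recorded for each group, and the treated figure was expressed relative to the control figure.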

[1] = endpoint: mean survival time, dose: 100.0 mg/kg/injection, schedule: Q01DX009 (ip), vehicle: Klucel (hydroxypropylcellulose) (HPC)
[2] = endpoint: mean survival time, dose: 200.0 mg/kg/injection, schedule: Q01DX009 (ip), vehicle: Klucel (hydroxypropylcellulose) (HPC)
[3] = endpoint: mean survival time, dose: 100.0 mg/kg/injection, schedule: Q01DX009 (ip), vehicle: saline with Tween-80
[4] = endpoint: mean survival time, dose: 100.0 mg/kg/injection, schedule: Q01DX009 (ip), vehicle: saline
[5] = endpoint: mean survival time, dose: 200.0 mg/kg/injection, schedule: Q01DX009 (ip), vehicle: saline
[6] = endpoint: mean survival time, dose: 400.0 mg/kg/injection, schedule: Q01DX009 (ip), vehicle: saline
[7] = endpoint: mean survival time, dose: 100.0 mg/kg/injection, schedule: Q04DX002 (ip), vehicle: saline
[8] = endpoint: mean survival time, dose: 100.0 mg/kg/injection, schedule: Q04DX002 (ip), vehicle: saline with Tween-80
[9] = endpoint: mean survival time, dose: 200.0 mg/kg/injection, schedule: Q04DX002 (ip), vehicle: saline with Tween-80
[10] = endpoint: mean survival time, dose: 200.0 mg/kg/injection, schedule: Q01DX001 (ip), vehicle: carboxymethylcellulose (CMC)
[11] = endpoint: mean survival time, dose: 50.0 mg/kg/injection, schedule: Q01DX Z (ip), vehicle: carboxymethylcellulose (CMC)

Structure (SMILES): COc1ccc2c(ccc3c2ncc2c(=O)[nH][nH]c23)c1
- T/C (endpoint: mean survival time, dose: 50.0 mg/kg/injection, schedule: Q01DX009 (ip), vehicle: Klucel (hydroxypropylcellulose) (HPC)): 92 % of control
- T/C [1]: 92 % of control
- T/C [2]: 92 % of control

Structure (SMILES): O=[N+]([O-])c1ccc(N=C/C=C/c2ccccc2)cc1
- T/C [3]: 88 % of control
- T/C (endpoint: mean survival time, dose: 200.0 mg/kg/injection, schedule: Q01DX009 (ip), vehicle: saline with Tween-80): 94 % of control
- T/C (endpoint: mean survival time, dose: 400.0 mg/kg/injection, schedule: Q01DX009 (ip), vehicle: saline with Tween-80): 104 % of control

Structure (SMILES): Cc1ccc(C(=O)C=Nc2ccccc2C(=O)O)cc1
- T/C (endpoint: mean survival time, dose: 75.0 mg/kg/injection, schedule: Q04DX003 (ip), vehicle: Klucel (hydroxypropylcellulose) (HPC)): 94 % of control
- T/C (endpoint: mean survival time, dose: 150.0 mg/kg/injection, schedule: Q04DX003 (ip), vehicle: Klucel (hydroxypropylcellulose) (HPC)): 95 % of control
- T/C (endpoint: mean survival time, dose: 300.0 mg/kg/injection, schedule: Q04DX003 (ip), vehicle: Klucel (hydroxypropylcellulose) (HPC)): 103 % of control

Structure (SMILES): O=[N+]([O-])c1ccc2nc(NCCCO)c3ccccc3c2c1
- T/C (endpoint: mean survival time, dose: 100.0 mg/kg/injection, schedule: Q04DX003 (ip), vehicle: Klucel (hydroxypropylcellulose) (HPC)): 120 % of control
- T/C (endpoint: mean survival time, dose: 200.0 mg/kg/injection, schedule: Q04DX003 (ip), vehicle: Klucel (hydroxypropylcellulose) (HPC)): 124 % of control
- T/C (endpoint: mean survival time, dose: 400.0 mg/kg/injection, schedule: Q04DX003 (ip), vehicle: Klucel (hydroxypropylcellulose) (HPC)): 96 % of control

Structure (SMILES): CC[Si](C)(C)N1CC1
- T/C (endpoint: mean survival time, dose: 12.5 mg/kg/injection, schedule: Q01DX001 (ip), vehicle: carboxymethylcellulose (CMC)): 106 % of control
- T/C (endpoint: mean survival time, dose: 25.0 mg/kg/injection, schedule: Q01DX001 (ip), vehicle: carboxymethylcellulose (CMC)): 101 % of control
- T/C (endpoint: mean survival time, dose: 50.0 mg/kg/injection, schedule: Q04DX003 (ip), vehicle: carboxymethylcellulose (CMC)): 94 % of control
- T/C (endpoint: mean survival time, dose: 100.0 mg/kg/injection, schedule: Q04DX003 (ip), vehicle: carboxymethylcellulose (CMC)): 101 % of control
- T/C (endpoint: mean survival time, dose: 200.0 mg/kg/injection, schedule: Q04DX003 (ip), vehicle: carboxymethylcellulose (CMC)): 101 % of control

Structure (SMILES): COc1ccc(NC(=O)Nc2nccs2)c(OC)c1
- T/C [4]: 104 % of control
- T/C [5]: 102 % of control
- T/C [6]: 105 % of control

Structure (SMILES): CCOC(=O)/C=C1\NC(=O)N(CCCN2C(=O)N/C(=C\C(=O)OCC)C2=O)C1=O
- T/C [3]: 97 % of control

Structure (SMILES): CCCCCCCCCCCCC(=O)N1CCCCCC1
- T/C [7]: 102 % of control
- T/C (endpoint: mean survival time, dose: 200.0 mg/kg/injection, schedule: Q04DX002 (ip), vehicle: saline): 102 % of control
- T/C (endpoint: mean survival time, dose: 400.0 mg/kg/injection, schedule: Q04DX002 (ip), vehicle: saline): 91 % of control

Structure (SMILES): CC(C)(C)CC(C)(C)c1ccc(OCCOc2ccc(C(=O)O)cc2)cc1
- T/C [1]: 88 % of control
- T/C [2]: 92 % of control
- T/C (endpoint: mean survival time, dose: 400.0 mg/kg/injection, schedule: Q01DX009 (ip), vehicle: Klucel (hydroxypropylcellulose) (HPC)): 92 % of control

Structure (SMILES): S=C(C#Cc1ccccc1)Nc1ccccc1
- T/C [8]: 93 % of control
- T/C [9]: 86 % of control

Structure (SMILES): CC(C)(NC(=O)C(F)(F)F)C(=O)O
- T/C (endpoint: mean survival time, dose: 100.0 mg/kg/injection, schedule: Q04DX003 (ip), vehicle: saline): 100 % of control
- T/C (endpoint: mean survival time, dose: 200.0 mg/kg/injection, schedule: Q04DX003 (ip), vehicle: saline): 87 % of control
- T/C (endpoint: mean survival time, dose: 400.0 mg/kg/injection, schedule: Q04DX003 (ip), vehicle: saline): 95 % of control

Structure (SMILES): O=C(NCCCCCCNC(=O)c1ccccc1)c1ccccc1
- T/C (endpoint: mean survival time, dose: 50.0 mg/kg/injection, schedule: Q01DX001 (ip), vehicle: carboxymethylcellulose (CMC)): 100 % of control
- T/C (endpoint: mean survival time, dose: 100.0 mg/kg/injection, schedule: Q01DX001 (ip), vehicle: carboxymethylcellulose (CMC)): 103 % of control
- T/C [10]: 97 % of control
- T/C (endpoint: mean survival time, dose: 400.0 mg/kg/injection, schedule: Q01DX001 (ip), vehicle: carboxymethylcellulose (CMC)): 97 % of control

Structure (SMILES): CN1CCOc2ccccc2OCCOCCOc2ccccc2OCC1
- T/C (endpoint: mean survival time, dose: 100.0 mg/kg/injection, schedule: Q01DX001 (ip), vehicle: Klucel (hydroxypropylcellulose) (HPC)): 100 % of control
- T/C (endpoint: mean survival time, dose: 200.0 mg/kg/injection, schedule: Q01DX001 (ip), vehicle: Klucel (hydroxypropylcellulose) (HPC)): 96 % of control
- T/C (endpoint: mean survival time, dose: 400.0 mg/kg/injection, schedule: Q01DX001 (ip), vehicle: Klucel (hydroxypropylcellulose) (HPC)): 102 % of control

Structure (SMILES): CCCN(C)/N=N/c1nc[nH]c1C(N)=O
- T/C (endpoint: mean survival time, dose: 22.0 mg/kg/injection, schedule: Q01DX009 (ip), vehicle: carboxymethylcellulose (CMC)): 120 % of control
- T/C (endpoint: mean survival time, dose: 37.5 mg/kg/injection, schedule: Q01DX Z (ip), vehicle: carboxymethylcellulose (CMC)): 151 % of control
- T/C (endpoint: mean survival time, dose: 50.0 mg/kg/injection, schedule: Q01DX009 (ip), vehicle: carboxymethylcellulose (CMC)): 151 % of control
- T/C [11]: 158 % of control
- T/C (endpoint: mean survival time, dose: 75.0 mg/kg/injection, schedule: Q01DX009 (ip), vehicle: carboxymethylcellulose (CMC)): 157 % of control
- T/C (endpoint: mean survival time, dose: 88.0 mg/kg/injection, schedule: Q01DX001 (ip), vehicle: carboxymethylcellulose (CMC)): 106 % of control
- T/C (endpoint: mean survival time, dose: 89.0 mg/kg/injection, schedule: Q01DX001 (ip), vehicle: carboxymethylcellulose (CMC)): 117 % of control
- T/C (endpoint: mean survival time, dose: 100.0 mg/kg/injection, schedule: Q01DX009 (ip), vehicle: carboxymethylcellulose (CMC)): 152 % of control
- T/C (endpoint: mean survival time, dose: 133.0 mg/kg/injection, schedule: Q01DX001 (ip), vehicle: carboxymethylcellulose (CMC)): 101 % of control and 124 % of control
- T/C [10]: 103 % of control
- T/C (endpoint: mean survival time, dose: 300.0 mg/kg/injection, schedule: Q01DX001 (ip), vehicle: carboxymethylcellulose (CMC)): 104 % of control and 117 % of control
- T/C (endpoint: median survival time, dose: 12.5 mg/kg/injection, schedule: Q01DX009 (ip), vehicle: steriod suspending solution): 116 % of control and 122 % of control
- T/C (endpoint: median survival time, dose: 50.0 mg/kg/injection, schedule: Q01DX009 (ip), vehicle: steriod suspending solution): 166 % of control
- T/C (endpoint: median survival time, dose: 100.0 mg/kg/injection, schedule: Q01DX009 (ip), vehicle: steriod suspending solution): 122 % of control

Structure (SMILES): C[n+]1ccc(NC(=O)c2ccc(NC(=O)c3cccc(C(=O)Nc4ccc(C(=O)Nc5cc[n+](C)cc5)cc4)c3)cc2)cc1
- T/C (endpoint: mean survival time, dose: 1.25 mg/kg/injection, schedule: Q01DX Z (ip), vehicle: carboxymethylcellulose (CMC)): 108 % of control
- T/C (endpoint: mean survival time, dose: 2.5 mg/kg/injection, schedule: Q01DX Z (ip), vehicle: carboxymethylcellulose (CMC)): 113 % of control
- T/C (endpoint: mean survival time, dose: 5.0 mg/kg/injection, schedule: Q01DX Z (ip), vehicle: carboxymethylcellulose (CMC)): 108 % of control
- T/C (endpoint: mean survival time, dose: 10.0 mg/kg/injection, schedule: Q01DX Z (ip), vehicle: carboxymethylcellulose (CMC)): 111 % of control
- T/C (endpoint: mean survival time, dose: 20.0 mg/kg/injection, schedule: Q01DX Z (ip), vehicle: carboxymethylcellulose (CMC)): 161 % of control
- T/C (endpoint: mean survival time, dose: 40.0 mg/kg/injection, schedule: Q01DX Z (ip), vehicle: carboxymethylcellulose (CMC)): 166 % of control
- T/C (endpoint: mean survival time, dose: 62.0 mg/kg/injection, schedule: Q01DX Z (oral), vehicle: carboxymethylcellulose (CMC)): 97 % of control
- T/C (endpoint: mean survival time, dose: 80.0 mg/kg/injection, schedule: Q01DX Z (ip), vehicle: carboxymethylcellulose (CMC)): 188 % of control
- T/C (endpoint: mean survival time, dose: 125.0 mg/kg/injection, schedule: Q01DX Z (oral), vehicle: carboxymethylcellulose (CMC)): 98 % of control
- T/C (endpoint: mean survival time, dose: 160.0 mg/kg/injection, schedule: Q01DX Z (ip), vehicle: carboxymethylcellulose (CMC)): 153 % of control
- T/C (endpoint: mean survival time, dose: 250.0 mg/kg/injection, schedule: Q01DX Z (oral), vehicle: carboxymethylcellulose (CMC)): 112 % of control
- T/C (endpoint: mean survival time, dose: 500.0 mg/kg/injection, schedule: Q01DX Z (oral), vehicle: carboxymethylcellulose (CMC)): 108 % of control

Structure (SMILES): CSCCC(NC(C)=O)C(=O)NNC(C)C (centres undefined)
- T/C (endpoint: mean survival time, dose: 25.0 mg/kg/injection, schedule: Q01DX009 (ip), vehicle: saline): 101 % of control
- T/C (endpoint: mean survival time, dose: 50.0 mg/kg/injection, schedule: Q01DX009 (ip), vehicle: saline): 92 % of control
- T/C [4]: 92 % of control
- T/C [5]: 95 % of control
- T/C [6]: 93 % of control

Structure (SMILES): CN=C(NC)c1ccc(NC(=O)/C=C/C(=O)Nc2ccc(C(=NC)NC)cc2)cc1
- T/C (endpoint: mean survival time, dose: 12.5 mg/kg/injection, schedule: Q01DX Z (ip), vehicle: carboxymethylcellulose (CMC)): 97 % of control
- T/C (endpoint: mean survival time, dose: 25.0 mg/kg/injection, schedule: Q01DX Z (ip), vehicle: carboxymethylcellulose (CMC)): 91 % of control
- T/C [11]: 99 % of control

Structure (SMILES): CC/C(C)=C\CC/C(C)=C/COc1cccc(CC)c1
- T/C [8]: 100 % of control
- T/C [9]: 94 % of control
- T/C (endpoint: mean survival time, dose: 400.0 mg/kg/injection, schedule: Q04DX002 (ip), vehicle: saline with Tween-80): 94 % of control

Structure (SMILES): CCN(CC)CCCC(C)Nc1cccc2c1C(=O)c1c(c(O)c3ccccc3c1O)C2=O (centres undefined)
- T/C (endpoint: mean survival time, dose: 25.0 mg/kg/injection, schedule: Q04DX002 (ip), vehicle: saline): 93 % of control
- T/C (endpoint: mean survival time, dose: 50.0 mg/kg/injection, schedule: Q04DX002 (ip), vehicle: saline): 93 % of control
- T/C [7]: 93 % of control
